These results are taken from US20250282895A1, “PHARMACEUTICAL COMPOSITIONS OF CHEMOTHERAPEUTIC AGENTS BASED ON BETA-S[…]-AMINO ACID DERIVATIVES” (priority 2021, published 2025).

Structures can show the parent of a compound that is named as a salt.

This series in a line: Comparative stability, Formulation 3 (based on Evomela, SBE6.5-β-CD). In kind it is physicochemical. The protocol:
The stability of Compound (1c) either as the HCl salt or as the free base was compared to the stability of melphalan HCl and/or bendamustine HCl in various pharmaceutical formulations and at different concentrations and at temperatures of 0° C. or 25° C.
The stability of the compounds in the pharmaceutical formulations was determined at concentrations within the range from 0.4 mg/mL to 0.5 mg/mL, from 0.9 mg/mL to 1.1 mg/mL, and from 1.8 mg/mL to 2.1 mg/mL.
The amount of the active pharmaceutical ingredient (API) (Compound (1c), melphalan or bendamustine) in the pharmaceutical formulations at different times during storage was determined using HPLC/UV as described in detail for Example 4 and Example 5.
Evomela® is an injectable formulation of melphalan hydrochloride, 4-[bis(2-chloroethyl)amino]-L-phenylalanine hydrochloride, approved by the FDA. Evomela® is supplied as a sterile white to off-white lyophilized powder in a single-dose vial for intravenous use. Each vial containing 50 mg melphalan free base equivalent to 56 mg melphalan hydrochloride and 2,700 mg betadex sulfobutyl ether (SBE6.5-β-CD; sulfobutyl ether β-cyclodextrin sodium) sodium, NF. Normal saline solution (0.9% Sodium Chloride Injection, USP) (8.6 mL as directed) is used to reconstitute Evomela® to a total of 10 mL having a 5 mg/mL nominal concentration of melphalan. The required volume of Evomela® needed for a patient dose is withdrawn from the vial(s) and added to the appropriate volume of 0.9% Sodium Chloride Injection, USP, to a final nominal concentration of 0.45 mg/mL of melphalan. This solution is then infused via an injection port or central venous catheter.
A series of 12 mL glass vials each containing 5.5 mg (0.0165 mmol of Compound (1c) free base and 270 mg of SBE6.5-β-CD, Captisol®) were prepared as described in Example 4.
The cyclodextrin derivative/Compound (1c) free base guest-host inclusion complex was reconstituted by dissolving the guest-host inclusion complex in 0.86 mL of 0.9% saline to provide 1.0 mL of a solution having a nominal concentration of 5.5 mg/mL of Compound (1c) free base.
A 1.0 mL aliquot of this solution was diluted with 10.0 mL of 0.9% saline, and the pH adjusted with 5 μL of a saturated aqueous NaHCO3 solution to provide 11.0 mL of a clear, colorless solution having a nominal concentration of 0.50 mg/mL of Compound (1c) from Compound (1c) free base and a pH from 5.8 to 6.1.
A 1.0 mL aliquot of this solution was diluted with 4.5 mL of 0.9% saline, and the pH adjusted with 5 μL of a saturated aqueous NaHCO3 solution to provide 5.5 mL of a clear, colorless solution having a nominal concentration of 1.0 mg/mL of Compound (1c) from Compound (1c) free base and a pH of about 6.1.
A 1.0 mL aliquot of this solution was diluted with 1.75 mL of 0.9% saline, and the pH adjusted with 5 μL of a saturated aqueous NaHCO3 solution to provide 2.75 mL of a clear, colorless solution having a nominal concentration of 2.0 mg/mL of Compound (1c) from Compound (1c) free base and a pH of about 6.1.
A series of 12 mL glass vials each containing 6.1 mg (0.0165 mmol of Compound (1c) mono-hydrochloride salt (corresponding to 5.5 mg of Compound (1c) free base) and 270 mg of SBE6.5-β-CD, Captisol®) were prepared as described in Example 5.
The cyclodextrin derivative/Compound (1c) mono-HCl salt guest-host inclusion complex was reconstituted by dissolving the guest-host inclusion complex in 0.86 mL of 0.9% saline to provide 1.0 mL of a solution having a nominal concentration of 6.1 mg/mL of Compound (1c) mono-HCl salt (corresponding to a nominal concentration of 5.5 mg/mL of the Compound (1c) free base).
A 0.5 mL aliquot of this solution was diluted with 5.0 mL of 0.9% saline, and the pH adjusted with 5 μL of a saturated aqueous NaHCO3 solution to provide 5.5 mL of a clear, colorless solution having a nominal concentration of 0.50 mg/mL of Compound (1c) from Compound (1c) mono-hydrochloride and a pH from 5.3 to 5.5. […]

Setting [1] is: Formulation 3, 0° C., 0.5 hours, 0.4-0.5 mg/mL, pH 5.8-6.1 (melphalan), pH 5-6 (Compound (1c)•HCl).
Where [2] appears, read: Formulation 3, 0° C., 2.0 hours, 0.4-0.5 mg/mL, pH 5.8-6.1 (melphalan), pH 5-6 (Compound (1c)•HCl).

Consider `Cc1ccc(N(CCCl)CCCl)cc1C[C@H](N)CC(=O)O` [Compound (1c)•HCl, (S)-3-amino-4-(5-(bis(2-chloroethyl)amino)-2-methylphenyl) butanoic acid mono hydrochloride salt], for which the “% API” value came to 97% under setting [1]; 97% (Formulation 3, 0° C., 0.5 hours, 0.9-1.1 mg/mL, pH 5-6); 100% (Formulation 3, 0° C., 0.5 hours, 1.8-2.1 mg/mL, pH 5-6); 97% under setting [2]; 91% (Formulation 3, 0° C., 2.0 hours, 0.9-1.1 mg/mL, pH 5-6); 99% (Formulation 3, 0° C., 2.0 hours, 1.8-2.1 mg/mL, pH 5-6). For the same compound, the “% API” value by setting is: (Formulation 3, 25° C., 0.5 hours, 0.4-0.5 mg/mL, pH 5.8-6.1 (melphalan), pH 5-6 (Compound (1c)•HCl), mono hydrochloride salt) 97%; (Formulation 3, 25° C., 0.5 hours, 0.9-1.1 mg/mL, pH 5-6 (Compound (1c)•HCl), mono hydrochloride salt) 97%; (Formulation 3, 25° C., 0.5 hours, 1.8-2.1 mg/mL, pH 5-6 (Compound (1c)•HCl)) 100%; (Formulation 3, 25° C., 2.0 hours, 0.4-0.5 mg/mL, pH 5.8-6.1 (melphalan), pH 5-6 (Compound (1c)•HCl), mono hydrochloride salt) 97%; (Formulation 3, 25° C., 2.0 hours, 0.9-1.1 mg/mL, pH 5-6 (Compound (1c)•HCl), mono hydrochloride salt) 91%; (Formulation 3, 25° C., 2.0 hours, 1.8-2.1 mg/mL, pH 5-6 (Compound (1c)•HCl), mono hydrochloride salt) 99%.
For `Cl.N[C@@H](Cc1ccc(N(CCCl)CCCl)cc1)C(=O)O` [Melphalan•HCl, 4-[bis(2-chloroethyl)amino]-L-phenylalanine hydrochloride, reference compound], the “% API” value came to 97% under setting [1]; 92% under setting [2]; 97% (Formulation 3, 25° C., 0.5 hours, 0.4-0.5 mg/mL, pH 5.8-6.1 (melphalan), pH 5-6 (Compound (1c)•HCl)); 92% (Formulation 3, 25° C., 2.0 hours, 0.4-0.5 mg/mL, pH 5.8-6.1 (melphalan), pH 5-6 (Compound (1c)•HCl)).
